Results as given in patent publication US8835447B2, “Method for treating androgen receptor positive cancers” (priority 2009, dated 2014).
Entries after “also recorded” stand apart in the source; their conditions may differ.

Tests used:
[1] = test system: HT1080, HeLa and DU145 cells; test: Colony formation assay, non-PCa and AR-negative PCa cells; assay type: cell-based, human; settings: 10 μM, 7 days
Procedure: (§1) Cell Colony Assay: Cells were plated in 24-well plates at a density allowing 6-7 days of exponential growth before confluency. Medium and compound was replaced every 48 hours to minimize the effect of potential compound instability. After 7 days of incubation in the presence of compound, cells were fixed and stained with methylene blue, followed by extraction of the stain with 1% SDS and spectrophotometry at 650 nm. Each assay was run in triplicate and the difference between control and compound-treated wells was determined using Student's t-test.
(§2) This Example provides a description of the effect of the selected compounds on the growth of PCa cells. To test the toxicity of the identified AR inhibitors towards cells of different origins, we performed colony formation assays using a single dose of each compound (10 μM) on several PCa (LNCaP, C4-2, CWR22R and DU145) and two non-PCa (HT1080 and HeLa) cell lines (FIG. 2A). […] These compounds were not weaker inhibitors of AR transcriptional activity in CWR22R or C4-2 cells than compounds that inhibited growth of the cells.

[2] = test system: AR-expressing PCa cell lines (LNCaP, C4-2, CWR22R); test: Toxicity to AR-expressing PCa cell lines (colony formation / dose-dependent growth inhibition); assay type: cell-based, human
Procedure: as §1
Dose-dependent inhibition of cell growth: Cells were plated at 1×10^3 cells per well in 96-well plates. Compounds were added in a dose range from 1 to 20000 nM in two-fold increments. Each dose was tested in triplicate. Controls were 0.1% DMSO (no effect on cell viability) and 50 μM 9-aminoacridine (complete cell death). Cells were incubated for 6 days and then fixed and stained with methylene blue, followed by extraction of the stain with 1% SDS and spectrophotometry at 650 nm. The assay was run two times and, based on the results, the inhibitory concentration of compound suppressing cell growth by 50% as compared to DMSO (IC50) was calculated by the sigmoid approximation method using CalcuSyn software (Biosoft, Chembridge, UK). Confidence intervals were calculated for each sigmoid.
as §2, with “the cells. […]” for “the cells.”

[3] = test system: AR protein in CWR22R cells; test: Western blot of AR protein levels; assay type: cell-based, human; settings: 10 mM of hits for 36 hrs
Procedure: FIGS. 3A-3D depict data showing a that reduction of AR protein levels is associated with toxicity of the selected AR inhibitor hits to PCa cells. […] is a photographic representation of Western blotting of lysates from CWR22R cells treated with […] of the indicated hits for 36 hrs. […] GAPDH antibody was used to control for protein loading. FIG. 3B provides a graphical representation of data showing that, unlike parental CWR22R cells, a clone selected in the presence of c52 (c52R) is resistant to the effects of c52. AR protein expression in the c52R clone of CWR22R is not reduced by c52 treatment. Western blotting of parental and c52-resistant CWR22R cells with or without c52 treatment (10 μM for 36 hrs). FIG. 3C provides a graphical representation of data from analyzing cell viability by methylene blue staining 4 days after compound addition. Error bars—standard deviation between triplicates within experiment. FIG. 3D provides a graphical representation of data showing effects of the selected compounds on cell cycle distribution of CWR22R cells measured by propidium iodide staining of cellular DNA content by fluorescent activated cell sorting. Assay was done twice. Error bars—deviation between two measurements.
Western blot analysis. […] Total protein concentration was determined using Dc Protein Assay (BioRad, Hercules, Calif.). […]

[4] = test system: NIH Swiss mice; test: Compound safety in mice, dose escalation; assay type: in vivo; settings: three i.p. injections 20x, 50x, 100xIC50 in 3 day intervals
Procedure: Testing of compound safety in mice was done according to an IACUC-approved protocol. The experiment was performed using outbred 8 week old NIH Swiss male mice from Harlan (Indianapolis, Ind.), 4 mice per group. IC50 concentrations were used to calculate in vivo doses based on mouse weight (IC50 in vivo dose equivalent in mg/kg=IC50 in mg/ml×1000, based on the assumption that 1 g of mouse tissues have an approximate volume of 1 ml). The compounds were injected intraperitoneally (i.p.) in 25% DMSO-75% PBS starting from 20×IC50 equivalent of in vitro cytotoxic dose of compounds. […]. The control group of mice received 3 injections of 25% DMSO-75% PBS in intervals of three days. Blood biochemistry analysis was performed by BioReliance (Rockville, Md.).
Five hit compounds, representing both the ARTIS and ARTIK categories (c6, c11, c17, c52 and c85), were selected for in vivo tests based on all of the previous assays. Compound c5 was rejected due to very low microsomal stability (<5% after 1 hour incubation with rat microsomes). The toxicity of the compounds was evaluated in a dose escalation assay in which male NIH Swiss mice (n=4) received three sequential intraperitoneal (i.p.) injections of each compound delivered in 3 day intervals. […]. On the day after the last injection, half of the mice in each group were sacrificed for gross pathology examination and collection of blood for serum biochemistry assays, which include total protein, glucose, bilirubin, and creatinine levels, activity of liver enzymes, and ion concentrations. The remaining mice were sacrificed and evaluated similarly 7 days after the last compound injection. […] A minor decrease in serum glucose concentration (70-80% of control) was observed on the day after the last compound injection in almost all mice, but glucose levels were normal a week later (data not shown). Low serum glucose level might reflect of a weak transient GR-inhibitory effect of the selected compounds.

## CCCn1c2ccccc2c2cc(C(C)=O)ccc21 [c52]
[1]
  growth of / toxicity towards non-PCa cells or AR-negative PCa cells (DU145): no toxicity
[2]; colony formation, 10 μM, three AR-expressing PCa cell lines
  toxicity towards AR-expressing PCa cell lines: different degrees of toxicity; also recorded: kill all PCa cells expressing AR
[2]; dose-dependent toxicity, by day 7
  degree of toxicity to PCa cells (killing vs reduced growth): kill practically all of the PCa cells in the culture by day 7
[3]
  AR protein level in CWR22R cells: complete disappearance of AR protein
[4]
  toxicity in mice (visual inspection, gross pathology): generally non-toxic
